Earlier results, collected in PubChem BioAssay AID1259409 (Chemical Carcinogenesis Research Information System (CCRIS), 2018).

Tested on: rodent chemically induced tumor inhibition, incidence and multiplicity
Assay: CCRIS tumor inhibitor studies
Conditions: Route [Inhibitor]: ORAL, Promoter: NONE USED

In the case of `CC1=C(/C=C/C(C)=C/C=C/C(C)=C/C(=O)NCCO)C(C)(C)CCC1`, the “tumour outcome (control, treated, inhibition, significance)” value (Carcinogen: N-NITROSOBIS(2-OXYPROPYL)AMINE, 60599-38-4, Dose [Inhibitor]: 0.05, 0.1 OR 0.2 MM/KG DIET FOR 32 WK STARTING 1 WK AFTER THE CARCINOGEN DOSE (STUDY DURATION: 33 WK), Species: HAMSTER, Strain/Sex: SYRIAN/FEMALE, Target Tissue: Type of Lesion: PANCREAS: CARCINOMA IN SITU, Dose [Carcinogen]: 40 MG/KG, ONCE, ONE WK PRIOR TO START OF AGENT TREATMENT) is listed as 1/10 (10%), 11/29 (38%), -280%, not significant, the “tumour outcome (control, treated, inhibition, significance)” value (Carcinogen: N-NITROSOBIS(2-OXYPROPYL)AMINE, 60599-38-4, Dose [Inhibitor]: 0.05, 0.1 OR 0.2 MM/KG DIET FOR 32 WK STARTING 1 WK AFTER THE CARCINOGEN DOSE (STUDY DURATION: 33 WK), Species: HAMSTER, Strain/Sex: SYRIAN/FEMALE, Target Tissue: Type of Lesion: PANCREAS: INTRADUCTAL CARCINOMA, Dose [Carcinogen]: 40 MG/KG, ONCE, ONE WK PRIOR TO START OF AGENT TREATMENT) is listed as 2/10 (20%), 6/29 (21%), -5%, not significant and the “tumour outcome (control, treated, inhibition, significance)” value (Carcinogen: N-NITROSOBIS(2-OXYPROPYL)AMINE, 60599-38-4, Dose [Inhibitor]: 0.05, 0.1 OR 0.2 MM/KG DIET FOR 32 WK STARTING 1 WK AFTER THE CARCINOGEN DOSE (STUDY DURATION: 33 WK), Species: HAMSTER, Strain/Sex: SYRIAN/MALE, Target Tissue: Type of Lesion: PANCREAS: ADENOCARCINOMA, Dose [Carcinogen]: 40 MG/KG, ONCE, ONE WK PRIOR TO START OF AGENT TREATMENT) is listed as 1/12 (8%), 4/29 (14%), -75%, not significant. The “tumour outcome (control, treated, inhibition, significance)” value (Carcinogen: N-NITROSOBIS(2-OXYPROPYL)AMINE, 60599-38-4, Dose [Inhibitor]: 0.05, 0.1 OR 0.2 MM/KG DIET FOR 32 WK STARTING 1 WK AFTER THE CARCINOGEN DOSE (STUDY DURATION: 33 WK), Species: HAMSTER, Strain/Sex: SYRIAN/MALE, Target Tissue: Type of Lesion: PANCREAS: CARCINOMA IN SITU, Dose [Carcinogen]: 40 MG/KG, ONCE, ONE WK PRIOR TO START OF AGENT TREATMENT) was 3/12 (25%), 5/29 (17%), 32%, not significant, the “tumour outcome (control, treated, inhibition, significance)” value (Carcinogen: N-NITROSOBIS(2-OXYPROPYL)AMINE, 60599-38-4, Dose [Inhibitor]: 0.05, 0.1 OR 0.2 MM/KG DIET FOR 32 WK STARTING 1 WK AFTER THE CARCINOGEN DOSE (STUDY DURATION: 33 WK), Species: HAMSTER, Strain/Sex: SYRIAN/MALE, Target Tissue: Type of Lesion: PANCREAS: INTRADUCTAL CARCINOMA, Dose [Carcinogen]: 40 MG/KG, ONCE, ONE WK PRIOR TO START OF AGENT TREATMENT) was 2/12 (17%), 0/29 (0%), 100%, not significant and the “tumour outcome (control, treated, inhibition, significance)” value (Carcinogen: N-NITROSOBIS(2-OXYPROPYL)AMINE, 60599-38-4, Dose [Inhibitor]: 0.05, 0.1 OR 0.2 MM/KG DIET FOR 32 WK STARTING 1 WK AFTER THE CARCINOGEN DOSE (STUDY DURATION: 33 WK), Species: HAMSTER, Strain/Sex: SYRIAN/MALE, Target Tissue: Type of Lesion: PANCREAS: MICROCARCINOMA, Dose [Carcinogen]: 40 MG/KG, ONCE, ONE WK PRIOR TO START OF AGENT TREATMENT) was 3/12 (25%), 4/29 (14%), 44%, not significant. The “tumour outcome (control, treated, inhibition, significance)” value (Carcinogen: NONE USED, Dose [Inhibitor]: 687 MG/KG DIET DAILY FOR 54 WK (STUDY DURATION: 54 WK), Species: RAT, Strain/Sex: ACI/SEGHAPBR/MALE, Target Tissue: Type of Lesion: ADRENAL GLAND: TUMOR) was 15/43 (35%), 22/44 (50%), -43%, not significant, the “tumour outcome (control, treated, inhibition, significance)” value (Carcinogen: NONE USED, Dose [Inhibitor]: 687 MG/KG DIET DAILY FOR 54 WK (STUDY DURATION: 54 WK), Species: RAT, Strain/Sex: ACI/SEGHAPBR/MALE, Target Tissue: Type of Lesion: PANCREAS: ISLET CELL ADENOMA) was 1/40 (3%), 8/44 (18%), -500%, p<0.05 and the “tumour outcome (control, treated, inhibition, significance)” value (Carcinogen: NONE USED, Dose [Inhibitor]: 687 MG/KG DIET DAILY FOR 54 WK (STUDY DURATION: 54 WK), Species: RAT, Strain/Sex: ACI/SEGHAPBR/MALE, Target Tissue: Type of Lesion: PITUITARY GLAND: ADENOMA, CARCINOMA) was 20/39 (51%), 19/41 (46%), 10%, not significant. The “tumour outcome (control, treated, inhibition, significance)” value (Carcinogen: NONE USED, Dose [Inhibitor]: 687 MG/KG DIET DAILY FOR 54 WK (STUDY DURATION: 54 WK), Species: RAT, Strain/Sex: ACI/SEGHAPBR/MALE, Target Tissue: Type of Lesion: PROSTATE GLAND: ADENOMA, CARCINOMA) was 19/44 (43%), 12/43 (28%), 35%, not significant, the “tumour outcome (control, treated, inhibition, significance)” value (Carcinogen: NONE USED, Dose [Inhibitor]: 687 MG/KG DIET DAILY FOR 54 WK (STUDY DURATION: 54 WK), Species: RAT, Strain/Sex: ACI/SEGHAPBR/MALE, Target Tissue: Type of Lesion: SKIN: TUMOR) was 12/45 (27%), 5/44 (11%), 59%, not significant and the “tumour outcome (control, treated, inhibition, significance)” value (Carcinogen: NONE USED, Dose [Inhibitor]: 687 MG/KG DIET DAILY FOR 54 WK (STUDY DURATION: 54 WK), Species: RAT, Strain/Sex: ACI/SEGHAPBR/MALE, Target Tissue: Type of Lesion: TESTES: INTERSTITIAL CELL TUMOR) was 21/45 (47%), 27/44 (61%), -30%, not significant.
